In patent US7135479B2, “Antidepressant azaheterocyclylmethyl derivatives of heterocycle-fused benzodioxans” (Wyeth, priority 2002, dated 2006):
Counter-ions that a name gives are not always drawn. Like-named read-outs stand apart in the source and are kept apart here.

Legend:
human 5-HT1A receptors = target: T1, human 5-HT1A receptors (Homo sapiens, UniProt P08908); experiment: [3H] 8-OHDPAT displacement from 5-HT1A receptor, CHO cells stably transfected with human 5-HT1A receptors; type: binding; details: read-out: 5-HT1A Function KI
T1 construct: expressed in transfected cells; host or cells: CHO cells
T1 sequence (P08908 1-422): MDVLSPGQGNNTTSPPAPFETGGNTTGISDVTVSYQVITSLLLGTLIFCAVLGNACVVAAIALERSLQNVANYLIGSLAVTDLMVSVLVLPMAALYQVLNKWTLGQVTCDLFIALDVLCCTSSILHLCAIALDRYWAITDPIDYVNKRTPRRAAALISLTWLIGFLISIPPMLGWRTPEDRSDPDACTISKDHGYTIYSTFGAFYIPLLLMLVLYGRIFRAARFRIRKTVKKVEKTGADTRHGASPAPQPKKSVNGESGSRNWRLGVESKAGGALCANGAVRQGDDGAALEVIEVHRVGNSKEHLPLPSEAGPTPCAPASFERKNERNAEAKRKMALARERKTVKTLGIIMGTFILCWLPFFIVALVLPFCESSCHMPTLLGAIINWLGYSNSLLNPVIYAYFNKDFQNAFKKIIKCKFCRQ
Excerpt: High affinity for the serotonin 5-HT1A receptor was established by testing the claimed compound's ability to displace [^3H] 8-OHDPAT (dipropylaminotetralin) from the 5-HT1A serotonin receptor following a modification of the procedure of Hall et al., J. Neurochem. 44, 1685 (1985) which utilizes CHO cells stably transfected with human 5-HT1A receptors.

[1] = target: T2, cloned human 5-HT1A receptors (Homo sapiens, UniProt P08908); experiment: 35S-GTPγS binding assay, antagonist activity at 5-HT1A receptors; type: biochemical; details: for IC50: potency in reversing the effects of the standard agonist 8-OHDPAT, read-out: 5-HT1A Receptor Affinity IC50 (nM) (Imax): IC50; for Emax: read-out: 5-HT1A Receptor Affinity IC50 (nM) (Imax): Imax
T2 construct: expressed in transfected cells
T2 sequence (P08908 1-422): T1 sequence (P08908 1-422)
Method: Antagonist activity at 5-HT1A receptors was established by using a ^35S-GTPγS binding assay similar to that used by Lazareno and Birdsall (Br. J. Pharmacol. 109: 1120, 1993), in which the test compound's ability to affect the binding of ^35S-GTPγS to membranes containing cloned human 5-HT1A receptors was determined. Agonists produce an increase in binding whereas antagonists produce no increase but rather reverse the effects of the standard agonist 8-OHDPAT. The test compound's maximum inhibitory effect is represented as the Imax, while its potency is defined by the IC50.

serotonin transporter = target: T3, serotonin transporter (Rattus norvegicus, UniProt P31652); experiment: 3H-paroxetine displacement from male rat frontal cortical membranes (affinity for the serotonin transporter); type: binding; details: read-out: 5-HT Transporter Affinity KI
T3 construct: displace ^3H-paroxetine from male rat frontal cortical membranes; from tissue; host or cells: male rat frontal cortex membranes
T3 sequence (P31652 whole entry): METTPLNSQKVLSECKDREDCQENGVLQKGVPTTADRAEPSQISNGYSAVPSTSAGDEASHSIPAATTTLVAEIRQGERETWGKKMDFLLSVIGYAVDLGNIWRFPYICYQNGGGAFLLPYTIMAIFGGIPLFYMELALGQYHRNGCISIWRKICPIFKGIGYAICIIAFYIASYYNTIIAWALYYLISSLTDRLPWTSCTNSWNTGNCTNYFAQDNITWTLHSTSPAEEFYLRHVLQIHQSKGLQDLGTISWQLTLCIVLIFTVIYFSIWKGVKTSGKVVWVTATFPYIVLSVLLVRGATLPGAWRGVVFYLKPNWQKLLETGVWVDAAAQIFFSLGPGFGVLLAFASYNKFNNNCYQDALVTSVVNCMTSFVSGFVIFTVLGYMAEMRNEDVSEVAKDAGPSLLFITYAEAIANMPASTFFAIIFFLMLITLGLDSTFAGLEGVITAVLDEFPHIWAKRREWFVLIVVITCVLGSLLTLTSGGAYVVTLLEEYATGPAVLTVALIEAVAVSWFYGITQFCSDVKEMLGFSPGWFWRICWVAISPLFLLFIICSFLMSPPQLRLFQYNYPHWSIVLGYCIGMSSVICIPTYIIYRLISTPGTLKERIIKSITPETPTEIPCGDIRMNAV

[2] = value in brackets, maximum inhibitory effect

## Cc1ccc2c3c(ccc2n1)OC[C@H](CN1CCC(Cn2ccc4ccc(F)cc42)CC1)O3 (as salt: fumarate) [Example 6]
other
  melting point: 140 to 142 °C

## Cc1ccc2c3c(ccc2n1)OC[C@H](CN1CCC(Cn2ccc4ccc(C#N)cc42)CC1)O3 (as salt: fumarate) [Example 8]
other
  melting point: 178 to 180 °C

## Cc1ccc2c3c(ccc2n1)OCC(CN1CC(Cc2c[nH]c4ccc(F)cc24)C1)O3 (stereo not shown) (as salt: hydrochloride) [Example 1, 2-[3-(5-Fluoro-1H-indol-3-ylmethyl)-azetidin-1-ylmethyl]-8-methyl-2,3-dihydro-[1,4]dioxino[2,3-f]quinoline]
other
  melting point: 125 °C (dec.)

## Cc1ccc2c3c(ccc2n1)OCC(CN1CCCC(Cc2c[nH]c4ccc(F)cc24)C1)O3 (stereo not shown) (as salt: hydrochloride) [Example 2, 2-[3-(5-Fluoro-1H-indol-3-ylmethyl)-piperidin-1-ylmethyl]-8-methyl-2,3-dihydro-[1,4]dioxino[2,3-f]quinoline]
other
  melting point: 68 °C (dec.)

## CCc1ccc2c3c(ccc2n1)OC[C@H](CN1CCC(Cn2ccc4ccc(F)cc42)CC1)O3 (as salt: hydrochloride) [Example 7]
other
  melting point: > 250 °C

## Cc1ccc2c3c(ccc2n1)OCC(CN1CC(CCn2ccc4ccc(F)cc42)C1)O3 (stereo not shown) (as salt: hydrochloride) [Example 10, 2-{3-[2-(6-Fluoro-indol-1-yl)-ethyl]-azetidin-1-ylmethyl}-8-methyl-2,3-dihydro-[1,4]dioxino[2,3-f]quinoline]
other
  melting point: 115 °C (dec.)

## Cc1ccc2c3c(ccc2n1)OC[C@H](CN1CC(CCn2ccc4ccc(C#N)cc42)C1)O3 (as salt: hydrochloride) [Example 11, 1-{2-[1-(8-Methyl-2,3-dihydro-[1,4]-dioxino[2,3-f]quinolin-2-ylmethyl)-azetinin-3-yl]-ethyl}-1H-indole-6-carbonitrile]
other
  melting point: 144 °C (dec.)

## Cc1ccc2c3c(ccc2n1)OC[C@H](CN1CC(Cc2cn(C)c4ccc(F)cc24)C1)O3 (as salt: oxalate) [Example 5]
other
  melting point: 193 to 195 °C

## Cc1ccc2c3c(ccc2n1)OCC(CN1CCCC(Cc2c[nH]c4cc(F)ccc24)C1)O3 (stereo not shown) (as salt: salt) [Example 3, 2-[3-(6-Fluoro-1H-indol-3-ylmethyl)-piperidin-1-ylmethyl]-8-methyl-2,3-dihydro-[1,4]dioxino[2,3-f]quinoline]
other
  melting point: 50 °C (dec.)

## Cc1ccc2c3c(ccc2n1)OCC(CN1CC(Cn2ccc4ccc(F)cc42)C1)O3 (stereo not shown) (as salt: salt) [Example 9, 2-[3-(6-Fluoro-indol-1-ylmethyl)-azetidin-1-ylmethyl]-8-methyl-2,3-dihydro-[1,4]dioxino[2,3-f]quinoline]
other
  melting point: 138 °C (dec.)

## Cc1ccc2c3c(ccc2n1)OCC(CN1CC(Cc2c[nH]c4ccc(F)cc24)C1)O3 (stereo not shown) [Example 1, 2-[3-(5-Fluoro-1H-indol-3-ylmethyl)-azetidin-1-ylmethyl]-8-methyl-2,3-dihydro-[1,4]dioxino[2,3-f]quinoline]
Human 5-HT1A receptors
  Ki: 2.5 nM
[1]
  IC50: 59.5 nM
[1]; [2]
  Emax: 73.7%
Serotonin transporter
  Ki: 1.29 nM

## Cc1ccc2c3c(ccc2n1)OCC(CN1CCCC(Cc2c[nH]c4ccc(F)cc24)C1)O3 (stereo not shown) [Example 2, 2-[3-(5-Fluoro-1H-indol-3-ylmethyl)-piperidin-1-ylmethyl]-8-methyl-2,3-dihydro-[1,4]dioxino[2,3-f]quinoline]
Human 5-HT1A receptors
  Ki: 3.3 nM
[1]
  IC50: 552 nM
[1]; [2]
  Emax: 100%
Serotonin transporter
  Ki: 15.3 nM

## Cc1ccc2c3c(ccc2n1)OCC(CN1CCCC(Cc2c[nH]c4cc(F)ccc24)C1)O3 (stereo not shown) [Example 3, 2-[3-(6-Fluoro-1H-indol-3-ylmethyl)-piperidin-1-ylmethyl]-8-methyl-2,3-dihydro-[1,4]dioxino[2,3-f]quinoline]
Human 5-HT1A receptors
  Ki: 3.4 nM
[1]
  IC50: 666 nM
[1]; [2]
  Emax: 100%
Serotonin transporter
  Ki: 15.1 nM

## Cc1ccc2c3c(ccc2n1)OCC(CN1CC(Cc2c[nH]c4ccccc24)C1)O3 (stereo not shown) [Example 4, 2-[3-(1H-Indol-3-ylmethyl)-azetidin-1-ylmethyl]-8-methyl-2,3-dihydro-[1,4]dioxino[2,3-f]quinoline]
Human 5-HT1A receptors
  Ki: 9.2 nM
[1]
  IC50: 37.2 nM
  Emax: 76.4%
Serotonin transporter
  Ki: 0.56 nM

## Cc1ccc2c3c(ccc2n1)OC[C@H](CN1CC(Cc2cn(C)c4ccc(F)cc24)C1)O3 [Example 5]
Human 5-HT1A receptors
  Ki: 16.7 nM
[1]
  IC50: 34.5 nM
[1]; [2]
  Emax: 96.3%
Serotonin transporter
  Ki: 0.72 nM

## Cc1ccc2c3c(ccc2n1)OC[C@H](CN1CCC(Cn2ccc4ccc(F)cc42)CC1)O3 [Example 6]
Human 5-HT1A receptors
  Ki: 9.55 nM
[1]
  IC50: 242 nM
[1]; [2]
  Emax: 85.5%
Serotonin transporter
  Ki: 1.01 nM

## CCc1ccc2c3c(ccc2n1)OC[C@H](CN1CCC(Cn2ccc4ccc(F)cc42)CC1)O3 [Example 7]
Human 5-HT1A receptors
  Ki: 15.2 nM
[1]
  IC50: 208 nM
[1]; [2]
  Emax: 81.5%
Serotonin transporter
  Ki: 1.61 nM

## Cc1ccc2c3c(ccc2n1)OC[C@H](CN1CCC(Cn2ccc4ccc(C#N)cc42)CC1)O3 [Example 8]
Human 5-HT1A receptors
  Ki: 6.56 nM
[1]
  IC50: 243 nM
[1]; [2]
  Emax: 100%
Serotonin transporter
  Ki: 0.6 nM

## Cc1ccc2c3c(ccc2n1)OCC(CN1CC(Cn2ccc4ccc(F)cc42)C1)O3 (stereo not shown) [Example 9, 2-[3-(6-Fluoro-indol-1-ylmethyl)-azetidin-1-ylmethyl]-8-methyl-2,3-dihydro-[1,4]dioxino[2,3-f]quinoline]
Human 5-HT1A receptors
  Ki: 55 nM
Serotonin transporter
  Ki: 0.11 nM

## Cc1ccc2c3c(ccc2n1)OCC(CN1CC(CCn2ccc4ccc(F)cc42)C1)O3 (stereo not shown) [Example 10, 2-{3-[2-(6-Fluoro-indol-1-yl)-ethyl]-azetidin-1-ylmethyl}-8-methyl-2,3-dihydro-[1,4]dioxino[2,3-f]quinoline]
Human 5-HT1A receptors
  Ki: 1.9 nM
[1]
  IC50: 343 nM
[1]; [2]
  Emax: 80%
Serotonin transporter
  Ki: 4.26 nM

## Cc1ccc2c3c(ccc2n1)OC[C@H](CN1CC(CCn2ccc4ccc(C#N)cc42)C1)O3 [Example 11, 1-{2-[1-(8-Methyl-2,3-dihydro-[1,4]-dioxino[2,3-f]quinolin-2-ylmethyl)-azetinin-3-yl]-ethyl}-1H-indole-6-carbonitrile]
Human 5-HT1A receptors
  Ki: 1.52 nM
[1]
  IC50: 251 nM
[1]; [2]
  Emax: 85%
Serotonin transporter
  Ki: 2.86 nM

## Cc1ccc2[nH]cc(CC3CN(C[C@H]4COc5ccc6nc(C)ccc6c5O4)C3)c2c1 [Example 12, 8-Methyl-2-[3-(5-methyl-1H-indol-3-ylmethyl)-azetidin-1-ylmethyl]-2,3-dihydro-[1,4]dioxino[2,3-f]quinoline]
[1]
  IC50: 38.6 nM
[1]; [2]
  Emax: 89.5%
Serotonin transporter
  Ki: 1.04 nM
